Results published in patent US10869878B2, “Vaginal composition and use thereof” (SINGAPORE ZE&Z INTERNATIONAL PTE. LTD, priority 2014, dated 2020).

Columns and labels:
Format in all cases: cell-based
Canidia albicans = experiment: Metabolization of carbohydrates by Canidia albicans, residual carbohydrate by HPLC (Experimental Example 5); conditions: 72 hrs aerobic, 37° C., initial 1.5% (w/v) carbohydrate, pH 7.0, detection limit 0.05% (w/v)
Description: (1) Grouping in experiment:
(2) Test strain: 2 strains of Canidia albicans, isolated from patients with candidal vaginitis.
The supernatant was separated by centrifugation, and packed in a specification of 5 ml/tube. The carbohydrate content in each tube was detected by HPLC.

[1] = system: Lactobacilli in the secretions from BV patients; experiment: Selective promotion of carbohydrate containing gels for the growth of Lactobacilli, 16s rDNA identification (Experimental Example 4); conditions: secretions from 20 BV patients; 1% (w/v) carbohydrate gel, 48 hrs slightly aerobic
Description: (§1) (3) After sampling, the vaginal secretion specimens from BV patients meeting the criteria of inclusion were immediately inoculated to the above 4 gels containing a carbohydrate, slightly aerobically incubated at 37° C. for 48 hrs, then transferred to a plate containing improved MRS with 1% (w/v) glucose and 5% (w/v) calf serum, slightly aerobically incubated for 20-48 hrs, isolated, purified and multiplied. The strain was identified by 16s rDNA sequencing.

BV-associated bacteria [2] = experiment: Acid production by BV-associated bacteria in carbohydrate containing gels, slightly aerobic incubation (Experimental Example 1); conditions: 1% (w/v) carbohydrate gel
Excerpt: (1) Grouping in experiment: • (1) Isomaltulose group: containing 1% (w/v) isomaltulose, MRS basal medium without carbohydrate, 5% (w/v) calf serum, and 0.5% (w/v) xanthan gum, pH5.4; • (2) Isomaltose group: containing 1% (w/v) isomaltose, MRS basal medium without carbohydrate, 5% (w/v) calf serum, and 0.5% (w/v) xanthan gum, pH5.4; • (3) Sucrose group: containing 1% (w/v) sucrose, MRS basal medium without carbohydrate, 5% (w/v) calf serum, and 0.5% (w/v) xanthan gum, pH5.4; and • (4) Maltose group: containing 1% (w/v) maltose, MRS basal medium without carbohydrate, 5% (w/v) calf serum, and 0.5% (w/v) xanthan gum, pH5.4.
The gel of each group was formulated essentially following the method described in Composition Example 1, then sterilized, added with calf serum, and packed in test tubes in a specification of 5 g/tube, for late use.
(2) Secretion specimens from BV patients: vaginal secretions from 5 BV patients; and the criteria of inclusion are: • (1) conforming to the Amsel clinical criteria of BV diagnosis, wherein the pH value of the vaginal secretions was >4.6; • (2) after smearing, Gram staining and microscopical examination of vaginal secretions, Nugent score ≥7; and • (3) no other vaginosis and no antimicrobial agent is used within two weeks.
(3) After sampling, the secretion specimens from BV patients meeting the criteria of inclusion were immediately inoculated to the above 4 gels containing a carbohydrate, and slightly aerobically incubated at 37° C. for 46 hrs. The pH values of the gel matrices are detected with a precise pH test paper respectively at 14 hrs, 36 hrs, and 46 hrs.

[3] = system: Gardnerella vaginalis in the secretions from BV patients; experiment: Selective promotion of carbohydrate containing gels for the growth of Gardnerella vaginalis (Experimental Example 4); conditions: secretions from 20 BV patients; 1% (w/v) carbohydrate gel, 48 hrs slightly aerobic
Description: as §1

BV-associated bacteria [4] = experiment: Acid production by BV-associated bacteria, carbohydrates and antibacterial agents in combination (Experimental Example 3); conditions: anaerobic, 37° C., 1.5% (w/v) carbohydrate, initial pH 5.4
Excerpt: (1) Grouping in experiment: • (1) Sucrose-preservative group: containing 1.5% (w/v) sucrose, 0.5% (w/v) sodium propionate, 0.025% (w/v) sodium dehydroacetate, MRS basal medium without carbohydrate, 5% (w/v) calf serum, and 0.45% (w/v) agar, pH5.4; • (2) Isomaltose-preservative group: containing 1.5% (w/v) isomaltose, 0.5% (w/v) sodium propionate, 0.025% (w/v) sodium dehydroacetate, MRS basal medium without carbohydrate, 5% (w/v) calf serum, and 0.45% (w/v) agar, pH5.4; • (3) Isomaltulose-preservative group: containing 1.5% (w/v) isomaltulose, 0.5% (w/v) sodium propionate, 0.025% (w/v) sodium dehydroacetate, MRS basal medium without carbohydrate, 5% (w/v) calf serum, and 0.45% (w/v) agar, pH5.4; • (4) Sucrose control group: containing 1.5% (w/v) sucrose, MRS basal medium without carbohydrate, 5% (w/v) calf serum, and 0.45% (w/v) agar, pH5.4; • (5) Isomaltose control group: containing 1.5% (w/v) isomaltose, MRS basal medium without carbohydrate, 5% (w/v) calf serum, and 0.45% (w/v) agar, pH5.4; and • (6) Isomaltulose control group: containing 1.5% (w/v) isomaltulose, MRS basal medium without carbohydrate, 5% (w/v) calf serum, and 0.45% (w/v) agar, pH5.4.
The semi-solid agar of each group is formulated essentially following the method described in Composition Example 1, then sterilized, added with calf serum, and packed in test tubes in a specification of 5 g/tube, for late use.
(2) Secretion specimens from BV patients: vaginal secretions from 2 BV patients; and the criteria of inclusion are: • (1) conforming to the Amsel clinical criteria of BV diagnosis, wherein the pH value of the vaginal secretions was >4.6; • (2) after smearing, Gram staining, and microscopical examination of vaginal secretions, Nugent score ≥7; and • (3) no other vaginosis, and no antimicrobial agent is used within two weeks.
(3) After sampling, the vaginal secretion specimens from BV patients meeting the criteria of inclusion were immediately inoculated to 3 semi-solid agars containing a carbohydrate and a preservative and 3 control agars at the bedside, and anaerobically incubated at 37° C. for […]. The pH values of the agar matrices are detected with a precise pH test paper after 30 or 32 hrs and 40 or 48 hrs of incubation.

[5] = Specimen 1, 14 hrs, slightly aerobic, 37° C., initial pH 5.4
[6] = Specimen 1, 46 hrs, slightly aerobic, 37° C., initial pH 5.4
[7] = Specimen 2, 14 hrs, slightly aerobic, 37° C., initial pH 5.4
[8] = Specimen 2, 46 hrs, slightly aerobic, 37° C., initial pH 5.4
[9] = Specimen 3, 14 hrs, slightly aerobic, 37° C., initial pH 5.4
[10] = Specimen 3, 36 hrs, slightly aerobic, 37° C., initial pH 5.4
[11] = Specimen 4, 14 hrs, slightly aerobic, 37° C., initial pH 5.4
[12] = Specimen 4, 36 hrs, slightly aerobic, 37° C., initial pH 5.4
[13] = Specimen 5, 14 hrs, slightly aerobic, 37° C., initial pH 5.4
[14] = Specimen 5, 36 hrs, slightly aerobic, 37° C., initial pH 5.4

Row | Compound | residual carbohydrate content by HPLC (Canidia albicans; Canidia albicans 1) | residual carbohydrate content by HPLC (Canidia albicans; Canidia albicans 2) | samples positive for Lactobacilli, In total [1] | total number of samples positive for L. amylovorus incubation [1] | total number of samples positive for L. crispatus incubation [1] | total number of samples positive for L. gasseri incubation [1] | total number of samples positive for L. iners incubation [1] | total number of samples positive for L. jensenii incubation [1] | total number of samples positive for L. mucosae incubation [1] | pH of the gel (BV-associated bacteria [2]; Specimen 1, 0 hr (initial)) | pH of the gel (BV-associated bacteria [2]; [5]) | pH of the gel (BV-associated bacteria [2]; [6]) | pH of the gel (BV-associated bacteria [2]; Specimen 2, 0 hr (initial)) | pH of the gel (BV-associated bacteria [2]; [7]) | pH of the gel (BV-associated bacteria [2]; [8]) | pH of the gel (BV-associated bacteria [2]; Specimen 3, 0 hr (initial)) | pH of the gel (BV-associated bacteria [2]; [9]) | pH of the gel (BV-associated bacteria [2]; [10]) | pH of the gel (BV-associated bacteria [2]; Specimen 4, 0 hr (initial)) | pH of the gel (BV-associated bacteria [2]; [11]) | also measured
1 | OC[C@H]1O[C@H](OC[C@H]2OC(O)(CO)[C@@H](O)[C@@H]2O)[C@H](O)[C@@H](O)[C@@H]1O (stereo partly drawn) [Isomaltulose, isomaltulose] | 0.11 g % | 0.12 g % | 9 | 1 | 1 | 2 | 0 | 4^1 | 1 | 5.4 | ≤3.8 | ≤3.8 | 5.4 | 4.1 | ≤3.8 | 5.4 | 3.8-4.1 | ≤3.8 | 5.4 | 4.1 | pH of the gel (BV-associated bacteria [2]; [12]): ≤3.8; pH of the gel (BV-associated bacteria [2]; Specimen 5, 0 hr (initial)): 5.4; pH of the gel (BV-associated bacteria [2]; [13]): 4.1-4.4; pH of the gel (BV-associated bacteria [2]; [14]): ≤3.8; number of samples positive for Gardnerella vaginalis [3]: 2 (15, 19); samples positive for Gardnerella vaginalis, In total [3]: 2; pH of the semi-solid agar (BV-associated bacteria [4]; Specimen 1 (30 hrs)): 3.8; pH of the semi-solid agar (BV-associated bacteria [4]; Specimen 2 (32 hrs)): 3.8
2 | OC[C@H]1O[C@@](CO)(O[C@H]2O[C@H](CO)[C@@H](O)[C@H](O)[C@H]2O)[C@@H](O)[C@@H]1O [Sucrose, sucrose] | 1.04 g % | 0.95 g % | 9 | 1 | 1 | 2 | 0 | 4 | 1 | 5.4 | ≤3.8 | ≤3.8 | 5.4 | 4.4 | ≤3.8 | 5.4 | 4.8-5.1 | 4.4-4.6 | 5.4 | 4.8-5.1 | pH of the gel (BV-associated bacteria [2]; [12]): ≤3.8; pH of the gel (BV-associated bacteria [2]; Specimen 5, 0 hr (initial)): 5.4; pH of the gel (BV-associated bacteria [2]; [13]): 4.4-4.6; pH of the gel (BV-associated bacteria [2]; [14]): 4.4-4.6; number of samples positive for Gardnerella vaginalis [3]: 3 (8, 15, 19); samples positive for Gardnerella vaginalis, In total [3]: 3; pH of the semi-solid agar (BV-associated bacteria [4]; Specimen 1 (30 hrs)): 3.8; pH of the semi-solid agar (BV-associated bacteria [4]; Specimen 2 (32 hrs)): 3.8
3 | OC[C@H]1O[C@H](OC[C@H]2OC(O)[C@H](O)[C@@H](O)[C@@H]2O)[C@H](O)[C@@H](O)[C@@H]1O (stereo partly drawn) [Isomaltose, isomaltose] | 0.74 g % | 0.76 g % | 9 | 1 | 1 | 2 | 0 | 4 | 1 | 5.4 | 3.8 | ≤3.8 | 5.4 | 4.1-4.4 | ≤3.8 | 5.4 | 4.1-4.4 | ≤3.8 | 5.4 | 4.4 | pH of the gel (BV-associated bacteria [2]; [12]): ≤3.8; pH of the gel (BV-associated bacteria [2]; Specimen 5, 0 hr (initial)): 5.4; pH of the gel (BV-associated bacteria [2]; [13]): 4.1-4.4; pH of the gel (BV-associated bacteria [2]; [14]): 4.1-4.4; number of samples positive for Gardnerella vaginalis [3]: 2 (15, 19); samples positive for Gardnerella vaginalis, In total [3]: 2; pH of the semi-solid agar (BV-associated bacteria [4]; Specimen 1 (30 hrs)): 3.8; pH of the semi-solid agar (BV-associated bacteria [4]; Specimen 2 (32 hrs)): 3.8-4.1
